Measured values from patent US6710048B2, “Pyrazine derivatives as modulators of tyrosine kinases” (Ortho-McNeil Pharmaceutical, Inc., priority 2000, dated 2004).

Assays:
[1] = molecular target: T1, EGFR (epidermal growth factor receptor) (Homo sapiens, UniProt P00533); assay: EGF-R kinase selectivity assay; type: biochemical; settings: Table 4 kinase selectivity
T1 construct: is purified from human A431 cell membranes; purchased Sigma E3641; host or cells: A431 cell membranes
Method: Assays to test compound inhibition of other kinases were preformed using methods that measure the amount of phosphorylation of a biotinylated peptide substrate. Biotinylated peptide substrates were selected from the literature as appropriate for the enzyme being evaluated. […] Assay conditions vary slightly for each protein kinase, for example, insulin receptor kinase requires 10 mM MnCl2 for activity and Calmodulin-dependent protein kinase requires calmodulin and 2 mM CaCl2. The reaction mixture was dispensed into the wells of a streptavidin coated Flashplate and 1 μl drug stock in 100% DMSO was added to a 100 μl reaction volume resulting in a final concentration of 1% DMSO in the reaction. Enzyme was diluted in 50 mM Tris-HCl pH=8.0, 0.1% BSA and added to each well. The reaction was incubated for one hour at 30° C. in the presence of compound. […] The plate was read on a scintillation counter to determine ^33P-γ-ATP incorporated into the immobilized peptide. […] A maximum and minimum signal for the assay was determined on each plate. The IC50 was calculated from the dose response curve of the percent inhibition of the maximum signal in the assay according to the formula [max signal−background/test compound signal−background (100)=% inhibition] by graphing the percent inhibition against the log concentration of test compound. […]

[2] = system: HeLa cervical adenocarcinoma; assay: Cell proliferation assay (14C-thymidine incorporation), HeLa; type: cell-based; settings: Homo sapiens, read-out: Inhibition of cell proliferation IC50
Method: (§1) The ability of a test compound to inhibit the proliferation of cell growth was determined by measuring incorporation of ^14C-labelled thymidine into newly synthesized DNA within the cells. This method was used on cell lines derived from carcinomas originating from several tissues such as HeLa cervical adenocarcinoma (American Type Culture Collection (ATCC), Virginia, Cat. #CCL-2), A375 malignant melanoma (ATCC CRL-1619), SK-OV-3 ovarian adenocarcinoma (ATCC HTB-77) HCT-116 colon carcinoma (CCL-247) and PC-3 prostate adenocarcinoma (ATCC CRL-1435). The method was also used on primary cells such as HUVEC endothelial cells (ATCC CRL-1730). In this way the effect of a compound on cell growth of cells with many different phenotypes can be determined. Cells were trypsinized and counted and 3000-8000 cells were added to each well of a 96-well CytoStar tissue culture treated scintillating microplate (Amersham #RPNQ0160) in complete medium in a volume of 100 μl. Cells were incubated for 24 hours in complete medium at 37° C. in an atmosphere containing 5% CO2.
(§2) Next, 1 μl of test compound in 100% DMSO was added to the wells of the plate. DMSO only was added to control wells. Cells were incubated for 24 more hours in complete medium at 37° C. in an atmosphere containing 5% CO2. Methyl ^14C-thymidine 56 mCi/mmol (NEN #NEC568 or Amersham #CFA532) was diluted in complete medium and 0.2 μCi/well was added to each well of the CytoStar plate in a volume of 20 μl. The plate was incubated for 24 hours at 37° C. plus 5% CO2 in drug plus ^14C-thymidine. The contents of the plate were discarded into a ^14C radioactive waste container by inverting the plate and the plate was washed twice with 200 μl PBS. 200 μl of PBS is then added to each well. The top of the plate was sealed with a transparent plate sealer and a white plate backing sealer (Packard #6005199) was applied to the bottom of the plate. The degree of Methyl ^14C-thymidine incorporation was quantified on a Packard Top Count.

[3] = system: SK-OV-3 ovarian adenocarcinoma; assay: Cell proliferation assay (14C-thymidine incorporation), SK-OV-3; type: cell-based; settings: Homo sapiens, read-out: Inhibition of cell proliferation IC50
Method: as §1, §2

[4] = system: HCT-116 colon carcinoma; assay: Cell proliferation assay (14C-thymidine incorporation), HCT-116; type: cell-based; settings: Homo sapiens, read-out: Inhibition of cell proliferation IC50
Method: as §1, §2

[5] = system: MDA-MB-231; assay: Cell proliferation assay (14C-thymidine incorporation), MDA-MB-231; type: cell-based; settings: Homo sapiens, read-out: Inhibition of cell proliferation IC50
Method: as §1, §2

[6] = system: PC-3 prostate adenocarcinoma; assay: Cell proliferation assay (14C-thymidine incorporation), PC-3; type: cell-based; settings: Homo sapiens, read-out: Inhibition of cell proliferation IC50
Method: as §1, §2

T1 sequence (P00533 25-1210): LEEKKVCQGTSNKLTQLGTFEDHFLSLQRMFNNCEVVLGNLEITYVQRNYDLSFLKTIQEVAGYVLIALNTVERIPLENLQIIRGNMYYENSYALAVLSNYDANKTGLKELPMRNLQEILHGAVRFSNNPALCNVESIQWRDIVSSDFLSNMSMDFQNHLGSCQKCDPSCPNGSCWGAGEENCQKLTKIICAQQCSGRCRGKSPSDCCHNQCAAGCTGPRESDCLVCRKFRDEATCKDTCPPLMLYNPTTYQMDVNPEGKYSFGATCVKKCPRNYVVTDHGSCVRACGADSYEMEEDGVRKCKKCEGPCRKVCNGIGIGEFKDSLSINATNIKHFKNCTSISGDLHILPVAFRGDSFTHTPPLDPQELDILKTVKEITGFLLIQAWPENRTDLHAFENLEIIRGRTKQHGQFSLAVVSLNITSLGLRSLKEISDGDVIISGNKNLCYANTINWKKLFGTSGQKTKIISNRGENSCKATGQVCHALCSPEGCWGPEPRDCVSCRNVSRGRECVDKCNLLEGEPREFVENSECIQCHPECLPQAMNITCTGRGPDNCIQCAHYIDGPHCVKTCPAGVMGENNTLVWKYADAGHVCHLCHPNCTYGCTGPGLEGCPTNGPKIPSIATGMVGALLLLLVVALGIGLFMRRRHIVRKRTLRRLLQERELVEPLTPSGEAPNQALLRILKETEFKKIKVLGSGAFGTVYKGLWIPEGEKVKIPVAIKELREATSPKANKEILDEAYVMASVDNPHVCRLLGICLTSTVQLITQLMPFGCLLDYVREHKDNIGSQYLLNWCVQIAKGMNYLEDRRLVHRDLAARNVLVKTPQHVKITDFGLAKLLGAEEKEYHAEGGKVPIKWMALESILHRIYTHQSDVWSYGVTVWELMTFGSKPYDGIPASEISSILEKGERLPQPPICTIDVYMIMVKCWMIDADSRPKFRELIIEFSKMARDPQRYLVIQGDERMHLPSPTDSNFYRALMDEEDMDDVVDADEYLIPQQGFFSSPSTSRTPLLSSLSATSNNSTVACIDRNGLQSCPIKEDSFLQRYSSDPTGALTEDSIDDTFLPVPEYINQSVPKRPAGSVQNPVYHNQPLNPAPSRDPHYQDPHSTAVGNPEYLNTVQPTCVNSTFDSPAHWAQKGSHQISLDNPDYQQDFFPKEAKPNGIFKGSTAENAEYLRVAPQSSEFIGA

Row | Structure (SMILES) | IC50 [1] [µM] | IC50 [2] [µM] | IC50 [3] [µM] | IC50 [4] [µM] | IC50 [5] [µM] | IC50 [6] [µM]
1 | O=C(NCCCO)c1cncc(-c2cncc(Nc3cccc(Cl)c3)n2)c1 [Cmd 39] | 6.06 | – | – | – | – | –
2 | Clc1cccc(Nc2cncc(-c3cncc(NCCCN4CCCCC4)c3)n2)c1 [Cmd 73] | – | 2.2 | 3.78 | – | – | –
3 | CN(C)CCNc1cncc(-c2cncc(Nc3cccc(Cl)c3)n2)c1 [Cmd 33, N′-[5-[6-[(3-chlorophenyl)amino]pyrazinyl]-3-pyridinyl]-N^2,N^2-dimethyl-1,2-ethanediamine] | – | 2.23 | 21.5 | > 100 | 12.7 | 22.9
4 | CN(C)CCCNc1cncc(-c2cncc(Nc3cccc(Cl)c3)n2)c1 [Cmd 35] | 20.7 | – | – | – | – | –
